Legend:
[1] = test system: differentiated human THP-1 macrophages; test: IL-6 production by differentiated THP-1 macrophages in culture (ELISA); type: cell-based; details: differentiated THP-1 macrophages incubated 3 days with varying concentrations; IL-6 in culture supernatant by ELISA; FIG. 7
Procedure: The effects of a sialidase inhibitor, N-acetyl-2,3-dehydro-2-deoxyneuraminic acid (ADDN), on the production of the inflammatory cytokine interleukin-6 (IL-6) by differentiated human THP-1 macrophages in culture was measured.
FIG. 7 illustrates that the inhibition of sialidase activity suppresses production of the pro-atherogenic cytokine IL-6 in differentiated THP-1 macrophages. Differentiated THP-1 macrophages were incubated for 3 days with the varying concentrations of the sialidase inhibitor ADDN. Levels of the cytokine IL-6 in samples of the cell culture supernatant were quantified by ELISA. Data are presented as the mean±standard deviation of triplicate experimental groups. (* denotes significant difference, P<0.001).

ApoE KO mice [2] = test: Serum glucose and serum/lipoprotein cholesterol in apoE KO mice treated with sialidase inhibitor; type: in vivo, mouse; details: vs saline control, FIG. 8
Procedure: Control mice received daily injections of saline. Data reveal significant reductions in serum glucose levels, and total and LDL cholesterol. P<0.01.
Plasma was prepared from heparinized blood collected by cardiac puncture (Covey et al 2003). Serum was collected from blood using serum separators (Becton Dickenson). Serum was submitted to the Clinical Diagnostic Laboratory at the McMaster University Medical Centre for analyses of standard metabolic parameters including total cholesterol, LDL cholesterol and glucose. Lipoproteins from plasma were separated by size by fast protein liquid chromatography (FPLC) using an AKTA system (Amersham Biosciences, Inc.) with a Superose 6 HR 10/30 column, as described previously (Covey et al 2003). The total cholesterol content in each fraction was assayed using an enzymatic assay kit from Thermo DMA. Lipoproteins (VLDL, LDL and HDL) from human plasma were run as controls to calibrate the column.
The inhibitor, N-Acetyl-2,3-dehydro-2-deoxyneuraminic acid (ADDN), was obtained from Sigma Chemical Company (St. Louis, Mo.). ApoE KO mice were ˜6 weeks of age at the beginning of the study. The mice were randomized into 2 groups of 6. The control group received daily i.p injections of 0.9% saline (0.1 ml/day for […]). The experimental group received daily i.p. injections of 0.9% saline (0.1 ml per day) containing either 0.1 or 0.4 ug ADDN for 7 days. Serum was collected on day 7 and serum glucose, total cholesterol and LDL levels were measured.

ApoE KO mice [3] = test: Atherosclerosis (aortic sinus lesion area and volume) in apoE KO mice treated with sialidase inhibitor; type: in vivo, mouse; details: male apoE KO mice aged 7 months, mini-osmotic pump 1.5 micro-g/day for 6 weeks, vs saline
Procedure: FIG. 9 illustrate a morphometric evaluation of atherosclerotic lesion area (A) and volume (B) in the aortic sinus of male ApoE−/− mice treated for 6 weeks with the sialic acid inhibitor ADDN (N-Acetyl-2,3-dehydro-2-deoxyneuraminic acid). Mice aged 7 months were treated for 6 weeks with either saline or the sialic acid inhibitor ADDN. (n=8 in each case). A third group of mice was euthanized at the beginning of the experiment so that the level of atherosclerosis at the time that treatment was initiated could be measured (Base, n=9). Atherosclerotic lesion cross sectional areas in the aortic root (A) and lesion volumes (B) were measured. Values are the averages ±standard error of the mean. Lesion progression was reduced in ADDN-treated mice compared to saline controls. […]
For diet-induced atherosclerosis, mice were fed (beginning four weeks after transplantation) with a high fat, Western-type diet (Covey et al 2003) obtained from Dyets, Inc. (Bethlehem Pa.). […] Atherosclerotic plaque cross sectional area was measured by morphometry using Axiovision software (Carl Zeiss Canada, Inc). A total of eight sections lying at 0.1 mm intervals along the aortic sinus were analyzed for each mouse. […] The volume of atherosclerotic plaque was therefore calculated as the sum of the volumes determined for each 0.1 mm portion of the aortic sinus. […]

[4] = daily i.p. 0.1 or 0.4 ug for 7 days

For `CC(=O)N[C@H]1[C@H]([C@H](O)[C@H](O)CO)OC(C(=O)O)=C[C@@H]1O` [ADDN, N-Acetyl-2,3-dehydro-2-deoxyneuraminic acid], the “production of the inflammatory cytokine IL-6” value [1] was “reduced production of IL-6”, the LDL cholesterol (ApoE KO mice [2]; [4]) was “significantly less” and the serum glucose (ApoE KO mice [2]; [4]) was “significantly decreased”. For the same molecule, the serum total cholesterol (ApoE KO mice [2]; [4]) was “significantly less”, the HDL cholesterol (ApoE KO mice [2]; daily i.p. injections) was “significantly less” and the “growth of atherosclerotic plaque cross sectional area from baseline” value (ApoE KO mice [3]; aortic root, FIG. 9A) was “substantially inhibited”. For the same molecule, the “growth of atherosclerotic plaque volume from baseline” value (ApoE KO mice [3]; aortic sinus, FIG. 9B) was “substantially inhibited”.
